Laboratory results as given in patent publication US20220288207A1, “PHOTO INDUCED CONTROL OF PROTEIN DESTRUCTION” (Beth Israel Deaconess Medical Center, Inc., priority 2019, published 2022).
Entries after “also recorded” stand apart in the source; their conditions may differ.

Assays:
CRBN = molecular target: T1, CRBN (Homo sapiens, UniProt Q96SW2); experiment: Competitive binding in vitro pull-down assay (biotin-pomalidomide pulls down Flag-CRBN)
T1 construct: made in house; host or cells: HEK293T
Procedure: Flag-CRBN was expressed in HEK293T cells lysed in PROTAC buffer B (50 mM Tris pH 7.5, 150 mM NaCl, 0.5% NP-40) supplemented with protease inhibitors (cOmplete Mini, Roche) and phosphatase inhibitors (phosphatase inhibitor cocktail set I and II, Calbiochem). 3mg cell lysis was incubated with 10 μl 10mM biotin-pomalidomide and […] streptavidin beads for 1 h at 4° C. in the absence or presence of pomalidomide or opto-pomalidomide. Then, the beads were washed four times with NETN buffer (20 mM Tris, pH 8.0, 100 mM NaCl, 1 mM EDTA and 0.5% NP-40) before being resolved by SDS-PAGE and immunoblotted with indicated antibodies.

[1] = UV-VIS absorption spectrum; assay type: physicochemical; settings: in DMSO
Procedure: (§1) UV-Vis spectrometry was performed on a NanoDrop-2000 UV-Visible Spectrophotometer. Pomalidomide, opto-pomalidomide, dBET1, opto-dBET1, dALK and opto-dALK were dissolved in DMSO and diluted to indicated concentration, followed by UVA irradiation for indicated duration of time. Then the samples were subjected to UV-Vis spectrometry analysis. Pomalidomide and opto-pomalidomide mixture solutions were made with the indicated ratio. Absorption values at 364 nm were measured to draw standard curve. dBET1 and opto-dBET1 mixture solution were made with the indicated ratios. Absorption values at 340 nm were measured to draw standard curve. dALK and opto-dALK mixture solution were made with indicated ratio. Absorption values at 370 nm were measured to draw standard curve.

MM1S cells = experiment: CCK-8 cell viability assay, MM1S cells; assay type: cell-based
Procedure: (§2) Human embryonic kidney 293T (HEK293T) cells and HEK293FT were maintained in Dulbecco's Modified Eagle's Medium (DMEM) containing 10% fetal bovine serum (FBS), 100 Units of penicillin and […] streptomycin. MM.1S, MT2, C4-2, NCI-H2228 and NCI-H3122 cells were cultured in RPMI1640 containing 10% fetal bovine serum (FBS), 100 Units of penicillin and 100 μg/ml streptomycin. 293FT^CRBN+/+, 293FT^CRBN+/+ , MM.1S^CRBN+/+ and MM.1S^CRBN−/− cells were provided Dr. William G. Kaelin (Dana-Farber Cancer Institute). For UVA irradiation, cells were pretreated with opto-PROTACs for 2-4 hours, and then subjected to UVA irradiation for indicated durations.
(§3) Cell in 96-well plates were incubated with 10 ul/well of CCK-8 solution and incubated for 2 hours, followed by the measurement of optical density using a microplate reader with a 450 nm filter (O.D. 450).

[2] = Uncaging (photolysis) by UVA irradiation in vitro, UV-VIS absorption / UPLC-MS analysis; assay type: physicochemical; settings: 1 mM, UVA 365 nm, time course
Procedure: HPLC spectra were acquired using an Agilent 1200 Series system with DAD detector for all the intermediates and Opto-PROTACs below. Chromatography was performed on a 2.1×150 mm Zorbax 300SB-C18 5 μm column with water containing 0.1% formic acid as solvent A and acetonitrile containing 0.1% formic acid as solvent B at a flow rate of 0.4 ml/min. The gradient program was as follows: 1% B (0-1 min), 1-99% B (1-4 min), and 99% B (4-8 min). High-resolution mass spectra (FIRMS) data were acquired in positive ion mode using an Agilent G1969A API-TOF with an electrospray ionization (ESI) source. Nuclear Magnetic Resonance (NMR) spectra were acquired on a Bruker DRX-600 spectrometer with 600 MHz for proton (^1H NMR) and 151 MHz for carbon (^13C NMR); chemical shifts are reported in (δ). Preparative HPLC was performed on Agilent Prep 1200 series with UV detector set to 254 nm. Samples were injected onto a Phenomenex Luna 250×30 mm, 5 μm, C18 column at room temperature. The flow rate was 40 ml/min. A linear gradient was used with 10% of acetonitrile (A) in H2O (with 0.1% TFA) (B) to 100% of acetonitrile (A). HPLC was used to establish the purity of target compounds. All final compounds had >95% purity using the HPLC methods described above.
as §1

MT2 cells = experiment: CCK-8 cell viability assay, MT2 cells; assay type: cell-based; settings: UVA irradiation (365 nm) 15 min
Procedure: as §2, §3

IKZF1 [3] = molecular target: T2, IKZF1 (Homo sapiens, UniProt Q13422+Q96SW2); experiment: In vivo ubiquitination assay of IKZF1 by CRBN in HEK293T cells (Ni-NTA pull down); assay type: cell-based; parameters: expressed in transfected cells; host or cells: HEK293T
Procedure: Briefly, HEK293T cells were transfected with Flag-CRBN, His-ubiquitin and HA-IKZF1 or GFP-BRD2 or GFP-BRD3. 24 hours after transfection, pomalidomide, opto-pomalidomide, dBET1 or opto-dBET1 were added to the cell culture together with 10 μM MG132 for 12 hours and cells were harvested in denatured buffer A (6 M guanidine-HCl, pH 8.0, 0.1 M Na2HPO4/NaH2PO4, 10 mM imidazole). After sonication, the ubiquitinated proteins were purified by incubation with Ni-NTA matrices for 3 hours at room temperature. The pull-down products were washed sequentially twice in buffer A, twice in buffer ANTI mixture (buffer A: buffer TI=1:3) and once in buffer TI (25 mM Tris-HCl, pH 6.8, 20 mM imidazole). The poly-ubiquitinated proteins were separated by SDS-PAGE for immunoblot analysis.

IKZF1 [4] = molecular target: T2, IKZF1; experiment: IKZF1 degradation, immunoblot of MT2 cells; assay type: cell-based; parameters: endogenous in cells; host or cells: MT2; settings: with UVA irradiation
Procedure: as §2
Cells were lysed in EBC lysis buffer (50 mM Tris pH 7.5, 120 mM NaCl, 0.5% NP-40), supplemented with protease inhibitors (cOmplete Mini, Roche) and phosphatase inhibitors (phosphatase inhibitor cocktail set I and II, Calbiochem). The protein concentrations of the lysates were measured using the Bio-Rad protein assay reagent on a Beckman Coulter DU-800 spectrophotometer. The lysates were then resolved by sodium dodecylsulfate-polyacrylamide gel ectrophoresis (SDS-PAGE) and immunoblotted with indicated antibodies. For immunoprecipitation, 1 mg lysates were incubated with the appropriate sepharose beads for 4 h at 4° C. […]

IKZF1/3 = IKZF1/3 degradation, immunoblot of MM1S cells; assay type: cell-based
Procedure: (§4) MM.1S, MT2, C4-2, NCI-H2228 and NCI-H3122 cells were cultured in RPMI1640 containing 10% fetal bovine serum (FBS), 100 Units of penicillin and 100 μg/ml streptomycin. […] For UVA irradiation, cells were pretreated with opto-PROTACs for 2-4 hours, and then subjected to UVA irradiation for indicated durations.
(§5) Cells were lysed in EBC lysis buffer (50 mM Tris pH 7.5, 120 mM NaCl, 0.5% NP-40), supplemented with protease inhibitors (cOmplete Mini, Roche) and phosphatase inhibitors (phosphatase inhibitor cocktail set I and II, Calbiochem). The protein concentrations of the lysates were measured using the Bio-Rad protein assay reagent on a Beckman Coulter DU-800 spectrophotometer. The lysates were then resolved by sodium dodecylsulfate-polyacrylamide gel ectrophoresis (SDS-PAGE) and immunoblotted with indicated antibodies. For immunoprecipitation, 1 mg lysates were incubated with the appropriate sepharose beads for 4 h at 4° C. Immuno-complexes were washed four times with NETN lysis buffer (20 mM Tris, pH 8.0, 100 mM NaCl, 1 mM EDTA and 0.5% NP-40) before being resolved by SDS-PAGE and immunoblotted with indicated antibodies.

CRBN and IKZF1 = molecular target: T3, CRBN and IKZF1 (Homo sapiens, UniProt Q13422+Q96SW2); experiment: CRBN-IKZF1 interaction, Flag-IP and immunoblot in HEK293T cells; assay type: cell-based; settings: 10 μM MG132 12 hours
T3 construct: expressed in transfected cells; host or cells: HEK293T
Procedure: as §4, §5

[5] = UVA irradiation (365 nm) 15 min
[6] = MM1S-CRBN+/+ vs. MM1S-CRBN−/− cells, 12 hours, without UVA irradiation, opto-drug up to 10-fold excess

binding with CRBN (CRBN; after UVA irradiation (365 nm, 30 min)) | binding with CRBN (CRBN; without UVA irradiation) | maximum in absorption of UV-VIS absorption spectrum [1] [nm] | degradation of IKZF1 (IKZF1 [4]) | Structure (SMILES) | cell proliferation (CCK-8) (MM1S cells; MM1S cells, UVA irradiation (365 nm) 15 min) | uncaging (photolysis) by UVA irradiation in vitro [2] | cell proliferation (CCK-8) (MT2 cells) | ubiquitination of IKZF1 by CRBN (IKZF1 [3]; [5]) | degradation of IKZF1/3 (IKZF1/3; MM1S cells, UVA irradiation (365 nm) for different durations) | degradation of IKZF1/3 (IKZF1/3; [6]) | interaction between CRBN and IKZF1 (CRBN and IKZF1; [5]) | interaction between CRBN and IKZF1 (CRBN and IKZF1; without UVA irradiation) | cell proliferation (CCK-8) (MM1S cells; MM1S-CRBN+/+ and MM1S-CRBN−/− cells, 72 hours, without UVA irradiation) | ubiquitination of IKZF1 by CRBN (IKZF1 [3]; without UVA irradiation)
regained ability to bind with CRBN | ineffective to bind with CRBN in vitro | 364 | mediate IKZF1 degradation in MT2 cells | COc1cc(COC(=O)N2C(=O)CCC(N3C(=O)c4cccc(N)c4C3=O)C2=O)c([N+](=O)[O-])cc1OC (centres unmarked) [opto-pomalidomide, 4,5-dimethoxy-2-nitrobenzyl 3-(4-amino-1,3-dioxoisoindolin-2-yl)-2,6-dioxopiperidine-1-carboxylate] | largely dependent on UVA irradiation; also recorded: inhibits MM1S cell proliferation in a dose-dependent manner | could be induced to undergo photolysis by UVA irradiation in vitro | inhibits MT2 cell proliferation in a dose-dependent manner | leading to CRBN-mediated IKZF1 ubiquitination | occurred in a drug-dose and UVA-dose dependent manner | lost this function without UVA irradiation | regained the ability to promote the binding between CRBN and IKZF 1 | ineffective in guiding the protein-protein interaction between CRBN and IKZF1 |  | 
 |  | 390 |  | Nc1cccc2c1C(=O)N(C1CCC(=O)NC1=O)C2=O (centres unmarked) [pomalidomide, reference compound] |  |  |  |  |  | induced IKZF1/3 degradation in a CRBN-dependent manner |  | bound both CRBN and IKZF1/3 | reduces MM1S cell proliferation in a CRBN-dependent manner | subsequently transfer the ubiquitin chain onto the target proteins, IKZFs
